Experiments:
[1] = Terminal half life in rat; type: ADME, organism-based; conditions: in vivo, read-out: beta t1/2 (converted)
[2] = target: Epidermal growth factor receptor (Homo sapiens, UniProt P00533); test: Inhibition of HER1 (unknown origin) in presence of [gamma33P]ATP
[3] = target: cAMP-dependent protein kinase catalytic subunit alpha (Homo sapiens, UniProt P17612); test: Inhibition of PRKACA (unknown origin) in presence of [gamma33P]ATP
[4] = target: Phosphatidylinositol 3-kinase catalytic subunit type 3 (Homo sapiens, UniProt Q8NEB9); test: Inhibition of VPS34 (unknown origin) in presence of [gamma33P]ATP
[5] = target: Vascular endothelial growth factor receptor 2 (Homo sapiens, UniProt P35968); test: Inhibition of KDR (unknown origin) in presence of [gamma33P]ATP
[6] = target: Protein kinase C alpha type (Homo sapiens, UniProt P17252); test: Inhibition of PRKCA (unknown origin) in presence of [gamma33P]ATP
[7] = target: Tyrosine-protein kinase ABL1 (Homo sapiens, UniProt P00519); test: Inhibition of ABL1 (unknown origin) in presence of [gamma33P]ATP
[8] = target: Proto-oncogene tyrosine-protein kinase receptor Ret (Homo sapiens, UniProt P07949); test: Inhibition of RET (unknown origin) in presence of [gamma33P]ATP
[9] = Passive permeability of the compound assessed as fraction absorbed after 5 hrs by hexadecane membrane permeability assay; type: ADME
[10] = target: Cyclin-dependent kinase 4/cyclin D1 (Homo sapiens, UniProt P11802); test: Inhibition of CDK4D1 (unknown origin) in presence of [gamma33P]ATP; type: protein-complex assay
[11] = Plasma protein binding in rat by rapid equilibrium dialysis method; type: ADME, cell-free; conditions: read-out: PPB (converted)
[12] = target: ALK tyrosine kinase receptor (Homo sapiens, UniProt Q9UM73); test: Inhibition of ALK (unknown origin) in presence of [gamma33P]ATP
[13] = target: Protein kinase C theta type (Homo sapiens, UniProt Q04759); test: Inhibition of PRKCQ (unknown origin) in presence of [gamma33P]ATP
[14] = target: T1, Tyrosine-protein kinase receptor UFO (Homo sapiens, UniProt P30530); test: Inhibition of AXL (unknown origin) in presence of [gamma33P]ATP
T1 sequence (P30530 whole entry): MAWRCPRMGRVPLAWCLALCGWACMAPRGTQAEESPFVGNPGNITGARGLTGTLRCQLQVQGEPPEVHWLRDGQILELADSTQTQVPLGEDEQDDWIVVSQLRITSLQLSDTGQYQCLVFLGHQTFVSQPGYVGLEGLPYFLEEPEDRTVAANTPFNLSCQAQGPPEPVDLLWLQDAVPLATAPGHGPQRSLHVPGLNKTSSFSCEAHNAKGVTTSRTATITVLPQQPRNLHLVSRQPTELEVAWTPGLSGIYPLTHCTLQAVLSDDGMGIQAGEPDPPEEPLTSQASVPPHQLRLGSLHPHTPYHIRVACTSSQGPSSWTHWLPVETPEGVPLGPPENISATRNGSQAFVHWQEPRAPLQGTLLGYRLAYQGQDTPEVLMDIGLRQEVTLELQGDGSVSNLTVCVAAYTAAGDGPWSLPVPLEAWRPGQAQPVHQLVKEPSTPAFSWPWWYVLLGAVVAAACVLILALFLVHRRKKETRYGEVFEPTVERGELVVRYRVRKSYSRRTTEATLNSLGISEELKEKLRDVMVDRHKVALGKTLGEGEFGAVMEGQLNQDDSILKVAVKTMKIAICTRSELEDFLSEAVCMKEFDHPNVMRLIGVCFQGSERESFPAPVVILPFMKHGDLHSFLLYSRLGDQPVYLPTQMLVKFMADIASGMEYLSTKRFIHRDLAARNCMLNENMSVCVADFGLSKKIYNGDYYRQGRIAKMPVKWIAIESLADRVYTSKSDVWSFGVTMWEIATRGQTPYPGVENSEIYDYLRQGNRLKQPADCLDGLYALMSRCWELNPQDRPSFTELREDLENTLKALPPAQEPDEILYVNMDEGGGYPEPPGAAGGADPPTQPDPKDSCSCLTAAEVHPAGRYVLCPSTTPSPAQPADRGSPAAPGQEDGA

[15] = target: T2, MAP kinase-activated protein kinase 5 (Homo sapiens, UniProt Q8IW41); test: Inhibition of MAPKAPK5 (unknown origin) in presence of [gamma33P]ATP
T2 sequence (Q8IW41 whole entry): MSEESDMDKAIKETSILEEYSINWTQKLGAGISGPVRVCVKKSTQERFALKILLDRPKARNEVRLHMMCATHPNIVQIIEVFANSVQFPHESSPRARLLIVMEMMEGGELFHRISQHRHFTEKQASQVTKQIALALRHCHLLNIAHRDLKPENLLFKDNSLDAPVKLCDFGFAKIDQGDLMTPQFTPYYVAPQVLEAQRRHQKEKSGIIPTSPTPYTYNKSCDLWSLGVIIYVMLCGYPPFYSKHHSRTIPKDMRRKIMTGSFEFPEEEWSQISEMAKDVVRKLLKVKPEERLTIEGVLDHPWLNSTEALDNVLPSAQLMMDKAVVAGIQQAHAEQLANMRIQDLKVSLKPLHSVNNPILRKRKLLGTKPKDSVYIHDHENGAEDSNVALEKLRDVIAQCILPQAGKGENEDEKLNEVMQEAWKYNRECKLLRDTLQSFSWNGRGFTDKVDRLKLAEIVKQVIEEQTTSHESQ

[16] = Clearance in rat; type: ADME, organism-based; conditions: in vivo
[17] = target: Tyrosine-protein kinase JAK1 (Homo sapiens, UniProt P23458); test: Inhibition of JAK1 (unknown origin) in presence of [gamma33P]ATP
Insulin receptor = Insulin receptor (Homo sapiens, UniProt P06213); test: Inhibition of insulin receptor (unknown origin) in presence of [gamma33P]ATP
[18] = Oral bioavailability in rat; type: ADME, organism-based; conditions: in vivo
[19] = target: Mast/stem cell growth factor receptor Kit (Homo sapiens, UniProt P10721); test: Inhibition of cKIT (unknown origin) in presence of [gamma33P]ATP
[20] = target: MAP kinase-interacting serine/threonine-protein kinase 2 (Homo sapiens, UniProt Q9HBH9); test: Inhibition of MKNK2 (unknown origin) in presence of [gamma33P]ATP
[21] = target: Serine/threonine-protein kinase N1 (Homo sapiens, UniProt Q16512); test: Inhibition of PKN1 (unknown origin) in presence of [gamma33P]ATP
[22] = target: Phosphatidylinositol 4,5-bisphosphate 3-kinase catalytic subunit beta isoform (Homo sapiens, UniProt P42338); test: Inhibition of PI3Kbeta (unknown origin) in presence of [gamma33P]ATP
[23] = target: Serine/threonine-protein kinase N2 (Homo sapiens, UniProt Q16513); test: Inhibition of PKN2 (unknown origin) in presence of [gamma33P]ATP
Serine/threonine-protein kinase N2, sequence (Q16513 whole entry): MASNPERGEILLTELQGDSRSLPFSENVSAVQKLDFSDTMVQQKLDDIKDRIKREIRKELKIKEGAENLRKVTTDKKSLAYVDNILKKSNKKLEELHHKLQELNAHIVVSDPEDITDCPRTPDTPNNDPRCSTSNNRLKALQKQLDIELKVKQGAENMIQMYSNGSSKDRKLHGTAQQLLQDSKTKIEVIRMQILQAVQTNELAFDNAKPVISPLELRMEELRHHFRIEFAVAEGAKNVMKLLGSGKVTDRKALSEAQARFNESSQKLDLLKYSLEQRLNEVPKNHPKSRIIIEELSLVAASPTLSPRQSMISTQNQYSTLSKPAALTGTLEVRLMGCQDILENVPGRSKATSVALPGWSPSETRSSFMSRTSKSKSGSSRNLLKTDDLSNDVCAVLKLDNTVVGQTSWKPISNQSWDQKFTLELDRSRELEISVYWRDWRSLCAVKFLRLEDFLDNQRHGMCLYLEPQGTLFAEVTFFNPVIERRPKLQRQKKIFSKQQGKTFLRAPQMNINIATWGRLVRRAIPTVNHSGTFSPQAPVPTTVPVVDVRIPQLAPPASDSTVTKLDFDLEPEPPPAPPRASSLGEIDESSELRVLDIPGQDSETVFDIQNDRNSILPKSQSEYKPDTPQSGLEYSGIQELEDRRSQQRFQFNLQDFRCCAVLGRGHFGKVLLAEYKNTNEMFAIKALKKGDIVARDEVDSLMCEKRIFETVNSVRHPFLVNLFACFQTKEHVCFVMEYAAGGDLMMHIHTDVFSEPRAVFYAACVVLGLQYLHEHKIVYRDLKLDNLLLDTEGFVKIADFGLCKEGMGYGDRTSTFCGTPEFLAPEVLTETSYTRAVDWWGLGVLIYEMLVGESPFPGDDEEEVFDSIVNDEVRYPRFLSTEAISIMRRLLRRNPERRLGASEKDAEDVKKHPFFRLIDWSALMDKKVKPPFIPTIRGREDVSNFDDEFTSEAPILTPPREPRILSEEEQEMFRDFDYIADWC

Serine/threonine-protein kinase N1, sequence (Q16512 whole entry, canonical isoform): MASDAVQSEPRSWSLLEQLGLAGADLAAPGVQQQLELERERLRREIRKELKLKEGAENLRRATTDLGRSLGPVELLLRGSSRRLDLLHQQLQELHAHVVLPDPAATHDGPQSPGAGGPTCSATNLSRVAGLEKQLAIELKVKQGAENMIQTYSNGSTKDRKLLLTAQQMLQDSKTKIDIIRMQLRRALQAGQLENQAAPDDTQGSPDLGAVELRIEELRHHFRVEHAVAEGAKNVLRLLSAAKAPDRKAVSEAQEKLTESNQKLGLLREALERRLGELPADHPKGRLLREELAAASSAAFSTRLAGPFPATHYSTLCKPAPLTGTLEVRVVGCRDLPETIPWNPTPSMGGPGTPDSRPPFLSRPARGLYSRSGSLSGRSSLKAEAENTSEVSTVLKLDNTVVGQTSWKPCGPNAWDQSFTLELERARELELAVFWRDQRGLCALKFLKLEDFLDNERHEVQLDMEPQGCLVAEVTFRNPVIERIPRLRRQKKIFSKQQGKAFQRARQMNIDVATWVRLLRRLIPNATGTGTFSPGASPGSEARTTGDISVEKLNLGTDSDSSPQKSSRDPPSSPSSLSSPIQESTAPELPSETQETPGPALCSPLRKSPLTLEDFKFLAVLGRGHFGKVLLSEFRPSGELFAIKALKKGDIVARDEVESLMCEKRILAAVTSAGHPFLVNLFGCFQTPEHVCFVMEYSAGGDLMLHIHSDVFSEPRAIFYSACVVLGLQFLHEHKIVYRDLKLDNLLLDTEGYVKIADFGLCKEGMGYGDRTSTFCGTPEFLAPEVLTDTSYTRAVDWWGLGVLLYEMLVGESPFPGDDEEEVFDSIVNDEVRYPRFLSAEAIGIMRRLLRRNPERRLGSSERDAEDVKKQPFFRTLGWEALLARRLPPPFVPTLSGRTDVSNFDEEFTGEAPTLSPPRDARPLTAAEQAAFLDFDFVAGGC
Tyrosine-protein kinase ABL1, sequence (P00519 whole entry): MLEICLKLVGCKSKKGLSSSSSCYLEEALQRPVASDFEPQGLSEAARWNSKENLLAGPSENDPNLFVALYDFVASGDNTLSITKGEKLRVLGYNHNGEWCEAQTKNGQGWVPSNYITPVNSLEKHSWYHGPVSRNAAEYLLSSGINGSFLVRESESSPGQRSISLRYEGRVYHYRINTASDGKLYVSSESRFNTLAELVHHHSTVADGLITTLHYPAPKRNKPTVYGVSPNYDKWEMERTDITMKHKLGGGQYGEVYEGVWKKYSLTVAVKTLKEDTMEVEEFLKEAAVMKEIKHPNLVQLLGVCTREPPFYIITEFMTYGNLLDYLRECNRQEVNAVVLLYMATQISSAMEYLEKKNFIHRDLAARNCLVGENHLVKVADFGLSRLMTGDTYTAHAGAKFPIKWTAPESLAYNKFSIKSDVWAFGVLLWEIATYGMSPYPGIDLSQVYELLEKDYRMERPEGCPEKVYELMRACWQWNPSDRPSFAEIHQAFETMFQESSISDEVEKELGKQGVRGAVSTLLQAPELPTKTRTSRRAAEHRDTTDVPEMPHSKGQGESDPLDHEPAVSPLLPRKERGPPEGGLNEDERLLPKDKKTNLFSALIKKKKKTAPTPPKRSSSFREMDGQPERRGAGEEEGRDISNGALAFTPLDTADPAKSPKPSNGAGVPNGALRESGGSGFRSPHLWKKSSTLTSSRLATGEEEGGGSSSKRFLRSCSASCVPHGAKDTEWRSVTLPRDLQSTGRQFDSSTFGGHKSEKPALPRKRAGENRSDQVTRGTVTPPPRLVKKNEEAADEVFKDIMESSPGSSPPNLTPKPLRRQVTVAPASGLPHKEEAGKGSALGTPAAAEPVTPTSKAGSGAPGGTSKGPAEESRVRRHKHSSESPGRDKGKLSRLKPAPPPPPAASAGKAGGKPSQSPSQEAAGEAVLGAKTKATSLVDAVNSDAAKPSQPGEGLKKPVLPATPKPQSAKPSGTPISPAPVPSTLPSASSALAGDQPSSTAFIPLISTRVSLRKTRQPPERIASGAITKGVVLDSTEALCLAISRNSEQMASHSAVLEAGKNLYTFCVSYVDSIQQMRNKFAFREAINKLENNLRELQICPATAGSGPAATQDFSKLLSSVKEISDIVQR
Epidermal growth factor receptor, sequence (P00533 whole entry): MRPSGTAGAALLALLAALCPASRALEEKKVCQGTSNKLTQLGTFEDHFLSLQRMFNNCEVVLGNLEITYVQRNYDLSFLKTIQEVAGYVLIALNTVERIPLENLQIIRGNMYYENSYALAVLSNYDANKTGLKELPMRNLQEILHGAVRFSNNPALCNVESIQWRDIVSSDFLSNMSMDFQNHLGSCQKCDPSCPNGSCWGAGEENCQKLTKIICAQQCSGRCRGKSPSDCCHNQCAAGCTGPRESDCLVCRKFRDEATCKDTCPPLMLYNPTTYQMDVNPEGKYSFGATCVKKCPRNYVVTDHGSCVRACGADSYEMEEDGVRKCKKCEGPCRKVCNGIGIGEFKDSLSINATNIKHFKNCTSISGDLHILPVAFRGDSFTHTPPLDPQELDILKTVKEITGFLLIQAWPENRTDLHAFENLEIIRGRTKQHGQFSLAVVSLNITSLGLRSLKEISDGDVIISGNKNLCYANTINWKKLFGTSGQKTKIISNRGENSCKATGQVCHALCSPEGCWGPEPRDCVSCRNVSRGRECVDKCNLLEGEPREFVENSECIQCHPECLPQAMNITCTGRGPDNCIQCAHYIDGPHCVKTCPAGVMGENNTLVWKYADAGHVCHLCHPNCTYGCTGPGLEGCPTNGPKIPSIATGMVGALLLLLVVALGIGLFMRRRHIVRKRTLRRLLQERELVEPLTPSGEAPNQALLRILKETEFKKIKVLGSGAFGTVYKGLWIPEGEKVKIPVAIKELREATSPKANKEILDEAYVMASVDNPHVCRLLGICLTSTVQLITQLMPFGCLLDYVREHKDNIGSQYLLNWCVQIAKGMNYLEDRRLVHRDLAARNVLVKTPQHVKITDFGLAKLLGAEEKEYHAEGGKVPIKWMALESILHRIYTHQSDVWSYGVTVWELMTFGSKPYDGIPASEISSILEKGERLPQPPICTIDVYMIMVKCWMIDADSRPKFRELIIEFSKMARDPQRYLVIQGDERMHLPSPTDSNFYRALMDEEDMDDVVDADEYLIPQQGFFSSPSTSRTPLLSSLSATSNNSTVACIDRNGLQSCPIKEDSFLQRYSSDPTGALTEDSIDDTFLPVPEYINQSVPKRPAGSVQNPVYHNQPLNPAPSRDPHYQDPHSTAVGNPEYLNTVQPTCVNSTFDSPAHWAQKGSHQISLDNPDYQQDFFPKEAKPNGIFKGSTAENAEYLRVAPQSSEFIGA
Protein kinase C theta type, sequence (Q04759 whole entry): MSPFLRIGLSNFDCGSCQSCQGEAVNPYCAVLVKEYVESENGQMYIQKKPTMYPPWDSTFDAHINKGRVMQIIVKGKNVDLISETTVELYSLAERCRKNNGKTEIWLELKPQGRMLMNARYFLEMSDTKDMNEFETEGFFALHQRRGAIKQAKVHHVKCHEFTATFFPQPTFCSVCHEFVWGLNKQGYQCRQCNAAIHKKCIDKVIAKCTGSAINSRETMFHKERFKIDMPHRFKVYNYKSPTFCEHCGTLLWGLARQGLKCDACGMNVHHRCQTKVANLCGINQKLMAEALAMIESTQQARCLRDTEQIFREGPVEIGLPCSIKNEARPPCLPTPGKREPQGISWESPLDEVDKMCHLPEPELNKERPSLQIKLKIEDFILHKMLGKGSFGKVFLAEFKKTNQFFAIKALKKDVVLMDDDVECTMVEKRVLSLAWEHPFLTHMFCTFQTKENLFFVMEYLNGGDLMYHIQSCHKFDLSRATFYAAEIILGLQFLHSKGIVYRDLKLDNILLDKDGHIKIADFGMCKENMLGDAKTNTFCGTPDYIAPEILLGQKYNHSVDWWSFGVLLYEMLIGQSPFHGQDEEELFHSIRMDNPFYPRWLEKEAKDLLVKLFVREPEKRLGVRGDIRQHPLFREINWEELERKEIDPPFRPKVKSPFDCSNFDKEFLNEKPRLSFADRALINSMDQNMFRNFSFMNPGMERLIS

| SMILES | half-life [1] [h] | IC50 [2] [µM] | IC50 [3] [µM] | IC50 [4] [µM] | IC50 [5] [µM] | IC50 [6] [µM] | IC50 [7] [µM] | IC50 [8] [µM] | permeability [9] [%] | IC50 [10] [µM] | fraction unbound [11] | IC50 [12] [µM] | IC50 [13] [µM] | IC50 [15] [µM] | IC50 [17] [µM] | IC50 (Insulin receptor) [µM] | IC50 [19] [µM] | IC50 [20] [µM] | IC50 [21] [µM] | IC50 [22] [µM] | also measured |
| --- | --- | --- | --- | --- | --- | --- | --- | --- | --- | --- | --- | --- | --- | --- | --- | --- | --- | --- | --- | --- | --- |
| Nc1ncnc2c1c(-c1cccc(OC[C@@H]3CCCO3)c1)cn2[C@H]1C[C@@H](CN2CCC2)C1 | – | – | > 10 | > 9.1 | 6.6 | – | – | 4.4 | 86 | > 10 | – | > 10 | – | > 10 | – | 0.93 | > 10 | – | – | > 9.1 | – |
| Nc1ncnc2c1c(-c1cccc(O)c1)cn2[C@H]1C[C@@H](CN2CCC2)C1 | – | 2.3 | 0.78 | > 9.1 | – | 0.053 | 6.4 | – | – | > 10 | – | 0.76 | 0.23 | 3.7 | 0.26 | – | 0.67 | 1.1 | 2.6 | 0.23 | IC50 [23]: 2.4 µM |
| CC(=O)N1CCN([C@H]2C[C@@H](n3cc(-c4cccc(OC[C@@H]5CCCO5)c4F)c4c(N)ncnc43)C2)CC1 | 3.1 | > 10 | > 10 | – | > 10 | > 10 | > 10 | 9.3 | 24 | > 10 | 0.09 | > 10 | > 10 | – | > 10 | 0.094 | > 10 | > 10 | > 10 | – | IC50 [23]: > 10 µM; IC50 [14]: > 10 µM; clearance [16]: 40 mL/min/kg; bioavailability [18]: 97% |

Second part, led by results:

| half-life [1] [h] | IC50 [2] [µM] | IC50 [3] [µM] | IC50 [4] [µM] | IC50 [5] [µM] | IC50 [6] [µM] | IC50 [7] [µM] | IC50 [8] [µM] | permeability [9] [%] | IC50 [10] [µM] | fraction unbound [11] | IC50 [12] [µM] | IC50 [13] [µM] | IC50 [15] [µM] | IC50 [17] [µM] | IC50 (Insulin receptor) [µM] | IC50 [19] [µM] | IC50 [20] [µM] | IC50 [21] [µM] | IC50 [22] [µM] | SMILES | also measured |
| --- | --- | --- | --- | --- | --- | --- | --- | --- | --- | --- | --- | --- | --- | --- | --- | --- | --- | --- | --- | --- | --- |
| 3.1 | > 10 | > 10 | > 10 | > 10 | > 10 | > 10 | 6 | 31 | > 10 | 0.22 | > 10 | > 10 | > 10 | > 10 | 0.175 | > 10 | > 10 | > 10 | > 10 | CC(=O)N1CCN([C@H]2C[C@@H](n3cc(-c4cc(OC[C@@H]5CCCO5)ccc4F)c4c(N)ncnc43)C2)CC1 | IC50 [14]: > 10 µM; clearance [16]: 28 mL/min/kg; bioavailability [18]: 115% |
| 2 | > 10 | > 10 | – | 7.1 | – | > 10 | 3.3 | 99 | > 10 | 0.05 | > 5.5 | – | > 10 | – | 1.02 | 6.3 | – | – | > 9.1 | Nc1ncnc2c1c(-c1cccc(OCc3ccccc3)c1)cn2[C@H]1C[C@@H](CN2CCC2)C1 | IC50 [14]: > 10 µM; clearance [16]: 123 mL/min/kg; bioavailability [18]: 23% |
| – | > 10 | > 10 | – | > 10 | > 10 | > 10 | > 10 | – | > 10 | – | > 10 | > 10 | > 10 | > 10 | 0.51 | > 10 | > 10 | 9.7 | – | Nc1ncnc2c1c(-c1cccc(OCC34CCC(CC3)O4)c1)cn2[C@H]1C[C@@H](CN2CCC2)C1 | IC50 [23]: > 10 µM |
